The record followed here is PubChem BioAssay (NCI).

The structures appear in SMILES notation.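 A five-concentration, 48-hour dose response in 96-well plates underlies each endpoint, interpolated linearly between surrounding concentrations. Definition used: TGI = concentration required for complete inhibition of growth.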 A value given as a limit tells only on which side of the number the result lay.

For one test, the system named is M14 melanoma. Description: growth of human tumour cells (NCI), 48 h.
Consider `NC(=Nc1ccccc1Cl)c1ccccc1N`, for which the TGI was more than 100 µM.

Turning to `CCN1C[C@]2(C)CC[C@H](O)C34C1C(C[C@@H]32)[C@@]1(O)CC[C@H]2C[C@@H]4[C@@H]1[C@H]2O`, the TGI was more than 100 µM.

Consider `CC12C=CC(C)(C3C(=O)C4C(C(=O)C31)C1(C)C=CC4(C)S1=O)S2=O` (configuration not stated), for which the TGI was more than 100 µM.

Turning to `CCC(CC)NC1=C(NC(C)=O)C(=O)c2ccccc2C1=O`, the TGI is more than 50 µM.

For the molecule `COc1ccc(-c2c(C(C)=O)c(-c3ccccc3)n(C3OC(CO)C(O)C(O)C3O)c(=S)c2C#N)cc1` (configuration not stated), the TGI was more than 100 µM.

The molecule `O=C(NN1C(=O)C(Cl)C1c1ccc(Cl)cc1)c1c(Cl)c(Cl)c(Cl)c(Cl)c1-c1nc2ccccc2[nH]1` (configuration not stated) gave a TGI of 74.9 µM.

The molecule `CC1(c2cccc(C3CC4(CCC3=O)OCCCCO4)c2)OCCO1` (configuration not stated) yielded a TGI of more than 100 µM.

In a further test the test system is SK-MEL-2 melanoma. The test can be described thus: growth of human tumour cells (NCI), 48 h.
In turn, `CC1(C)OCN(c2ccc(N3CCOCC3)cc2)Cn2c1nc1ccccc12` registered a TGI of more than 100 µM.

Molecule `CC(C)(C)C1=C(Br)C(C(C)(C)C)OP1(=O)O` (configuration not stated) had a TGI of more than 100 µM.

`N[C@@H]1CCN(c2c(F)cc3c(=O)c(C(=O)O)cn4c3c2Oc2c-4ccc3c2ccc2ccccc23)C1` had a TGI of more than 100 µM.

Turning to `CN(C)/C=C/C(=CC=[N+](C)C)/C=C/N(C)C`, the TGI was more than 100 µM.

In turn, `Cc1ccc(C(=O)O)c(/C=C2\Cc3ccc(C)cc3C2=O)c1` displayed a TGI of more than 100 µM.

`COc1c(=O)cc2cc[nH]c3cc[nH]c1c23` came in with a TGI of more than 100 µM.

Molecule `N#Cc1c(-c2ccc(Cl)cc2)c2c(n(C3OC(CO)C(O)C(O)C3O)c1=S)CCCC2` (configuration not stated) showed a TGI of more than 100 µM.

`O=S(Cc1ccccc1)c1nc2ccccc2nc1-c1cccs1` (configuration not stated) registered a TGI of 24.2 µM.

In the case of `NC(=Nc1ccccc1Cl)c1ccccc1N`, the TGI was more than 100 µM.

In turn, `CCN1C[C@]2(C)CC[C@H](O)C34C1C(C[C@@H]32)[C@@]1(O)CC[C@H]2C[C@@H]4[C@@H]1[C@H]2O` displayed a TGI of more than 100 µM.

For `CCC(CC)NC1=C(NC(C)=O)C(=O)c2ccccc2C1=O`, the TGI was more than 50 µM.

As to `O=C(NN1C(=O)C(Cl)C1c1ccc(Cl)cc1)c1c(Cl)c(Cl)c(Cl)c(Cl)c1-c1nc2ccccc2[nH]1` (configuration not stated), the TGI was 47.1 µM.

Consider `CC1(c2cccc(C3CC4(CCC3=O)OCCCCO4)c2)OCCO1` (configuration not stated), for which the TGI was more than 100 µM.

The subject of the next test is NCI-H460 lung. The test can be described thus: growth of human tumour cells (NCI), 48 h.
On to `CC1(C)OCN(c2ccc(N3CCOCC3)cc2)Cn2c1nc1ccccc12`, for which the TGI was more than 100 µM.

Molecule `CC(C)(C)C1=C(Br)C(C(C)(C)C)OP1(=O)O` (configuration not stated) showed a TGI of more than 100 µM.

In turn, `Cc1c(-c2ccccc2)cc(O)c2nc3ccccc3n12` came in with a TGI of more than 100 µM.

The molecule `N[C@@H]1CCN(c2c(F)cc3c(=O)c(C(=O)O)cn4c3c2Oc2c-4ccc3c2ccc2ccccc23)C1` had a TGI of 2.91 µM.

Regarding `CN(C)/C=C/C(=CC=[N+](C)C)/C=C/N(C)C`, the TGI is more than 100 µM.

Molecule `Cc1ccc(C(=O)O)c(/C=C2\Cc3ccc(C)cc3C2=O)c1` registered a TGI of more than 100 µM.

As to `COc1c(=O)cc2cc[nH]c3cc[nH]c1c23`, the TGI was more than 100 µM.

Consider `CCCCC1(NN=C2CCCCC2)C(=O)N(c2ccccc2)N(c2ccccc2)C1=O`, for which the TGI was more than 100 µM.

`CNC1(c2cc3ccccc3s2)CCCCC1` had a TGI of 35.4 µM.

The molecule `Cc1cc(C)c2c(=O)cc(-c3cccc4ccccc34)[nH]c2n1` yielded a TGI of more than 100 µM.

Molecule `N#Cc1c(-c2ccc(Cl)cc2)c2c(n(C3OC(CO)C(O)C(O)C3O)c1=S)CCCC2` (configuration not stated) showed a TGI of more than 100 µM.

`O=S(Cc1ccccc1)c1nc2ccccc2nc1-c1cccs1` (configuration not stated) came in with a TGI of 45.4 µM.

In turn, `O=C1/C(=C\c2ccc([N+](=O)[O-])cc2)N(S(=O)(=O)c2ccccc2)c2ncccc21` gave a TGI of 38.3 µM.

As to `CC(=O)SCCC(NC(=S)Nc1ccccc1)P(=O)(Oc1ccccc1)Oc1ccccc1` (configuration not stated), the TGI is more than 100 µM.

The molecule `NC(=Nc1ccccc1Cl)c1ccccc1N` displayed a TGI of more than 100 µM.

Molecule `CCN1C[C@]2(C)CC[C@H](O)C34C1C(C[C@@H]32)[C@@]1(O)CC[C@H]2C[C@@H]4[C@@H]1[C@H]2O` had a TGI of more than 100 µM.

With `CC12C=CC(C)(C3C(=O)C4C(C(=O)C31)C1(C)C=CC4(C)S1=O)S2=O` (configuration not stated), the TGI was more than 100 µM.

Turning to `CCC(CC)NC1=C(NC(C)=O)C(=O)c2ccccc2C1=O`, the TGI is more than 50 µM.

`COc1ccc(-c2c(C(C)=O)c(-c3ccccc3)n(C3OC(CO)C(O)C(O)C3O)c(=S)c2C#N)cc1` (configuration not stated) yielded a TGI of more than 100 µM.

Molecule `O=C(NN1C(=O)C(Cl)C1c1ccc(Cl)cc1)c1c(Cl)c(Cl)c(Cl)c(Cl)c1-c1nc2ccccc2[nH]1` (configuration not stated) showed a TGI of 46.4 µM.

The molecule `CC1(c2cccc(C3CC4(CCC3=O)OCCCCO4)c2)OCCO1` (configuration not stated) displayed a TGI of more than 100 µM.

In another test the test system is T-47D breast. The test can be described thus: growth of human tumour cells (NCI), 48 h.
With `CC(C)(C)C1=C(Br)C(C(C)(C)C)OP1(=O)O` (configuration not stated), the TGI was more than 100 µM.

As to `Cc1c(-c2ccccc2)cc(O)c2nc3ccccc3n12`, the TGI was more than 100 µM.

In the case of `Cc1ccc(C(=O)O)c(/C=C2\Cc3ccc(C)cc3C2=O)c1`, the TGI was more than 100 µM.

`CCCCC1(NN=C2CCCCC2)C(=O)N(c2ccccc2)N(c2ccccc2)C1=O` came in with a TGI of more than 100 µM.

The molecule `Cc1cc(C)c2c(=O)cc(-c3cccc4ccccc34)[nH]c2n1` showed a TGI of more than 100 µM.

The molecule `O=C1/C(=C\c2ccc([N+](=O)[O-])cc2)N(S(=O)(=O)c2ccccc2)c2ncccc21` returned a TGI of 35 µM.

In the case of `CC(=O)SCCC(NC(=S)Nc1ccccc1)P(=O)(Oc1ccccc1)Oc1ccccc1` (configuration not stated), the TGI is more than 100 µM.

`COc1ccc(-c2c(C(C)=O)c(-c3ccccc3)n(C3OC(CO)C(O)C(O)C3O)c(=S)c2C#N)cc1` (configuration not stated) registered a TGI of more than 100 µM.

Regarding `O=C(NN1C(=O)C(Cl)C1c1ccc(Cl)cc1)c1c(Cl)c(Cl)c(Cl)c(Cl)c1-c1nc2ccccc2[nH]1` (configuration not stated), the TGI turned out to be 25 µM.

The next test has as its system UACC-62 melanoma. Description: growth of human tumour cells (NCI), 48 h.
On to `CC1(C)OCN(c2ccc(N3CCOCC3)cc2)Cn2c1nc1ccccc12`, for which the TGI was more than 100 µM.

In turn, `CC(C)(C)C1=C(Br)C(C(C)(C)C)OP1(=O)O` (configuration not stated) had a TGI of more than 100 µM.

Molecule `Cc1c(-c2ccccc2)cc(O)c2nc3ccccc3n12` returned a TGI of more than 100 µM.

Regarding `N[C@@H]1CCN(c2c(F)cc3c(=O)c(C(=O)O)cn4c3c2Oc2c-4ccc3c2ccc2ccccc23)C1`, the TGI was more than 100 µM.

In turn, `CN(C)/C=C/C(=CC=[N+](C)C)/C=C/N(C)C` yielded a TGI of more than 100 µM.

For the molecule `Cc1ccc(C(=O)O)c(/C=C2\Cc3ccc(C)cc3C2=O)c1`, the TGI was more than 100 µM.

As for `COc1c(=O)cc2cc[nH]c3cc[nH]c1c23`, the TGI was more than 100 µM.

Take `CCCCC1(NN=C2CCCCC2)C(=O)N(c2ccccc2)N(c2ccccc2)C1=O`: the TGI is more than 100 µM.

In turn, `CNC1(c2cc3ccccc3s2)CCCCC1` registered a TGI of 49 µM.

For the molecule `N#C[S-].[La+3].c1cnc2c(c1)ccc1cccnc12.c1cnc2c(c1)ccc1cccnc12.c1cnc2c(c1)ccc1cccnc12`, the TGI stood at 4.8 µM.

With `Cc1cc(C)c2c(=O)cc(-c3cccc4ccccc34)[nH]c2n1`, the TGI is more than 61.6 µM.

Take `O=C1/C(=C\c2ccc([N+](=O)[O-])cc2)N(S(=O)(=O)c2ccccc2)c2ncccc21`: the TGI was found to be 26 µM.

As to `CC(=O)SCCC(NC(=S)Nc1ccccc1)P(=O)(Oc1ccccc1)Oc1ccccc1` (configuration not stated), the TGI was more than 100 µM.

Molecule `NC(=Nc1ccccc1Cl)c1ccccc1N` gave a TGI of more than 100 µM.

For the molecule `CCN1C[C@]2(C)CC[C@H](O)C34C1C(C[C@@H]32)[C@@]1(O)CC[C@H]2C[C@@H]4[C@@H]1[C@H]2O`, the TGI is more than 100 µM.

Consider `CC12C=CC(C)(C3C(=O)C4C(C(=O)C31)C1(C)C=CC4(C)S1=O)S2=O` (configuration not stated), for which the TGI was more than 100 µM.

`CCC(CC)NC1=C(NC(C)=O)C(=O)c2ccccc2C1=O`: the TGI is more than 50 µM.
